Results: the supplement of paper PMC10307832

Key:
Test in all cases: relative viability (nuclei count vs DMSO), 5 days (fraction); higher = more cells survive
[1] = tested on: EKVX
In short: (§1)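 Medians of duplicate plates are given as relative viability. That measure is the nuclei count in treated wells divided by the count in vehicle wells. Counts were taken on 4× images of lung cancer cell lines in 1536-well plates, 5 days after pin-tool dosing the day after seeding with one drug alone or a fixed anchor-drug dose plus five library-drug doses (not always all listed) in √10 steps.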

[2] = tested on: NCI-H1650
In short: as §1

[3] = tested on: LK-2
In short: as §1

[4] = tested on: NCI-H1734
In short: as §1

[5] = tested on: CAL-12T
In short: as §1

[6] = tested on: NCI-H2342
In short: as §1

[7] = tested on: NCI-H2405
In short: as §1

[8] = tested on: NCI-H661
In short: as §1

[9] = tested on: HCC-827
In short: as §1

[10] = tested on: LCLC-97TM1
In short: as §1

[11] = tested on: NCI-H1755
In short: as §1

[12] = tested on: NCI-H2228
In short: as §1

[13] = tested on: NCI-H1975
In short: as §1

[14] = tested on: HCC-15
In short: as §1

[15] = tested on: PC-3 [JPC-3]
In short: as §1

[16] = tested on: H3255
In short: as §1

[17] = tested on: RERF-LC-KJ
In short: as §1

[18] = tested on: NCI-H1563
In short: as §1

[19] = tested on: NCI-H520
In short: as §1

[20] = tested on: NCI-H322M
In short: as §1

[21] = tested on: NCI-H1355
In short: as §1

[22] = tested on: PC-14
In short: as §1

COc1cc2nccc(Oc3ccc(NC(=O)Nc4cc(C)on4)c(Cl)c3)c2cc1OC [Tivozanib] + CCNC(=O)c1noc(-c2cc(C(C)C)c(O)cc2O)c1-c1ccc(CN2CCOCC2)cc1 [Luminespib] (partner 0.01 µM)
relative viability ([1]; first compound 0.005 µM): 0.856 | relative viability ([1]; first compound 0.01581 µM): 0.834 | relative viability ([1]; first compound 0.05 µM): 0.879 | relative viability ([1]; first compound 0.1581 µM): 0.908 | relative viability ([1]; first compound 0.5 µM): 0.847 | relative viability ([2]; first compound 0.005 µM): 0.172 | relative viability ([2]; first compound 0.01581 µM): 0.209 | relative viability ([2]; first compound 0.05 µM): 0.213 | relative viability ([2]; first compound 0.1581 µM): 0.178 | relative viability ([2]; first compound 0.5 µM): 0.203 | relative viability ([3]; first compound 0.005 µM): 0.179 | relative viability ([3]; first compound 0.01581 µM): 0.225 | relative viability ([3]; first compound 0.05 µM): 0.184 | relative viability ([3]; first compound 0.1581 µM): 0.233 | relative viability ([3]; first compound 0.5 µM): 0.206 | relative viability ([4]; first compound 0.005 µM): 0.2 | relative viability ([4]; first compound 0.01581 µM): 0.231 | relative viability ([4]; first compound 0.05 µM): 0.325 | relative viability ([4]; first compound 0.1581 µM): 0.178 | relative viability ([4]; first compound 0.5 µM): 0.18 | relative viability ([5]; first compound 0.005 µM): 0.253 | relative viability ([5]; first compound 0.01581 µM): 0.36 | relative viability ([5]; first compound 0.05 µM): 0.573 | relative viability ([5]; first compound 0.1581 µM): 0.276 | relative viability ([5]; first compound 0.5 µM): 0.594 | relative viability ([6]; first compound 0.005 µM): 0.673 | relative viability ([6]; first compound 0.01581 µM): 0.656 | relative viability ([6]; first compound 0.05 µM): 0.802 | relative viability ([6]; first compound 0.5 µM): 0.626 | relative viability ([7]; first compound 0.005 µM): 0.644 | relative viability ([7]; first compound 0.01581 µM): 0.953 | relative viability ([7]; first compound 0.05 µM): 0.723 | relative viability ([7]; first compound 0.1581 µM): 0.684 | relative viability ([7]; first compound 0.5 µM): 0.54 | relative viability ([8]; first compound 0.005 µM): 0.958 | relative viability ([8]; first compound 0.01581 µM): 0.956 | relative viability ([8]; first compound 0.05 µM): 0.982 | relative viability ([8]; first compound 0.1581 µM): 0.998 | relative viability ([8]; first compound 0.5 µM): 0.953 | relative viability ([9]; first compound 0.005 µM): 0.588 | relative viability ([9]; first compound 0.01581 µM): 0.63 | relative viability ([9]; first compound 0.05 µM): 0.413 | relative viability ([9]; first compound 0.1581 µM): 0.467 | relative viability ([9]; first compound 0.5 µM): 0.6 | relative viability ([10]; first compound 0.005 µM): 0.845 | relative viability ([10]; first compound 0.01581 µM): 0.849 | relative viability ([10]; first compound 0.05 µM): 0.716 | relative viability ([10]; first compound 0.1581 µM): 0.898 | relative viability ([10]; first compound 0.5 µM): 0.738 | relative viability ([11]; first compound 0.005 µM): 0.466 | relative viability ([11]; first compound 0.01581 µM): 0.346 | relative viability ([11]; first compound 0.05 µM): 0.406 | relative viability ([11]; first compound 0.1581 µM): 0.329 | relative viability ([11]; first compound 0.5 µM): 0.453 | relative viability ([12]; first compound 0.005 µM): 0.0873 | relative viability ([12]; first compound 0.01581 µM): 0.219 | relative viability ([12]; first compound 0.05 µM): 0.112 | relative viability ([12]; first compound 0.1581 µM): 0.185 | relative viability ([12]; first compound 0.5 µM): 0.109 | relative viability ([13]; first compound 0.005 µM): 0.172 | relative viability ([13]; first compound 0.01581 µM): 0.34 | relative viability ([13]; first compound 0.05 µM): 0.199 | relative viability ([13]; first compound 0.1581 µM): 0.198 | relative viability ([13]; first compound 0.5 µM): 0.316 | relative viability ([14]; first compound 0.005 µM): 0.249 | relative viability ([14]; first compound 0.01581 µM): 0.382 | relative viability ([14]; first compound 0.05 µM): 0.327 | relative viability ([14]; first compound 0.1581 µM): 0.398 | relative viability ([14]; first compound 0.5 µM): 0.378 | relative viability ([15]; first compound 0.005 µM): 0.744 | relative viability ([15]; first compound 0.01581 µM): 0.636 | relative viability ([15]; first compound 0.05 µM): 0.751 | relative viability ([15]; first compound 0.1581 µM): 0.716 | relative viability ([15]; first compound 0.5 µM): 0.766 | relative viability ([16]; first compound 0.005 µM): 0.69 | relative viability ([16]; first compound 0.01581 µM): 0.851 | relative viability ([16]; first compound 0.05 µM): 0.821 | relative viability ([16]; first compound 0.1581 µM): 0.704 | relative viability ([16]; first compound 0.5 µM): 0.681 | relative viability ([17]; first compound 0.005 µM): 1.16 | relative viability ([17]; first compound 0.01581 µM): 1.29 | relative viability ([17]; first compound 0.05 µM): 1.25 | relative viability ([17]; first compound 0.1581 µM): 1.25 | relative viability ([17]; first compound 0.5 µM): 1.14 | relative viability ([18]; first compound 0.005 µM): 0.45 | relative viability ([18]; first compound 0.01581 µM): 0.539 | relative viability ([18]; first compound 0.05 µM): 0.541 | relative viability ([18]; first compound 0.1581 µM): 0.52 | relative viability ([18]; first compound 0.5 µM): 0.472 | relative viability ([19]; first compound 0.005 µM): 0.287 | relative viability ([19]; first compound 0.01581 µM): 0.219 | relative viability ([19]; first compound 0.05 µM): 0.222 | relative viability ([19]; first compound 0.1581 µM): 0.328 | relative viability ([19]; first compound 0.5 µM): 0.245 | relative viability ([20]; first compound 0.005 µM): 0.797 | relative viability ([20]; first compound 0.01581 µM): 0.882 | relative viability ([20]; first compound 0.05 µM): 0.958 | relative viability ([20]; first compound 0.1581 µM): 0.694 | relative viability ([20]; first compound 0.5 µM): 0.965 | relative viability ([21]; first compound 0.005 µM): 0.612 | relative viability ([21]; first compound 0.01581 µM): 0.686 | relative viability ([21]; first compound 0.05 µM): 0.747 | relative viability ([21]; first compound 0.1581 µM): 0.462 | relative viability ([21]; first compound 0.5 µM): 0.728 | relative viability ([22]; first compound 0.005 µM): 0.115 | relative viability ([22]; first compound 0.01581 µM): 0.139 | relative viability ([22]; first compound 0.05 µM): 0.187 | relative viability ([22]; first compound 0.1581 µM): 0.15 | relative viability ([22]; first compound 0.5 µM): 0.139
